From article PMC8471380 (Molecules, 2021)
Counter-ions that a name gives are not always drawn.

How the values were obtained:
[1] = target: T1, porcine liver CES (Sus scrofa, UniProt Q29550); assay: CES inhibition, 4-nitrophenyl acetate hydrolysis; type: biochemical; settings: for inhibition at 20 µM: read-out: % of inhibition of CES with 20 µM concentration of the compound
T1 sequence (Q29550 19-566): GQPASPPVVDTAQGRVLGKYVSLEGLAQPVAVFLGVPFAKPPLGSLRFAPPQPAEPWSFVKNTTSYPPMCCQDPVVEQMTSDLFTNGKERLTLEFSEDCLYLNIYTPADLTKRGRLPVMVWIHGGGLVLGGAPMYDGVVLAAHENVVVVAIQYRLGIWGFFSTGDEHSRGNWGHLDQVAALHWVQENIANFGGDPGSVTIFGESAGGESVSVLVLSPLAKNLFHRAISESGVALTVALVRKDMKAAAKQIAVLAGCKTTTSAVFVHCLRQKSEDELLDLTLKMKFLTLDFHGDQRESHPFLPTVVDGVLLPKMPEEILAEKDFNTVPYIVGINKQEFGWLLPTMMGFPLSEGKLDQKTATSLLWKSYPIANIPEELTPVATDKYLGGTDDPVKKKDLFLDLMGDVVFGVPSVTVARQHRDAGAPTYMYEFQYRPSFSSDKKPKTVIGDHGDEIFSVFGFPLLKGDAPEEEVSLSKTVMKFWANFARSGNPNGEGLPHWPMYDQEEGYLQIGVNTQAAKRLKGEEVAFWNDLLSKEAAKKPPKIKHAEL
Description: (§1) Reagents blanks consisted of reaction mixtures without substrates. […] Final enzyme and substrate concentrations were 0.02 unit/mL and 1 mM, respectively. Assays were carried out with a blank containing all constituents except porcine CES to assess non-enzymatic hydrolysis. The measurements were performed on a FLUOstar OPTIMA multifunctional microplate reader (BMG LABTECH, Ortenberg, Germany). The compounds were dissolved in DMSO. The incubation mixture contained 2% (v/v) of the solvent. […] The sample of the appropriate enzyme was incubated with the test compound for 5 min, and then the residual enzymatic activity was determined. Each experiment was performed in triplicate. […] Each experiment was performed in triplicate. The IC50 values were calculated with Origin 6.1 software.

[2] = target: T2, PAS of EeAChE (Electrophorus electricus, UniProt O42275); type: binding; settings: 20 µM compound; 7 µM EeAChE, 8 µM propidium iodide; mean ± SEM, n = 3
T2 construct: AChE from Electrophorus electricus (EeAChE, type VI-S, lyophilized powder); purchased Sigma-Aldrich type VI-S; host or cells: Electrophorus electricus tissue
T2 sequence (O42275 24-633): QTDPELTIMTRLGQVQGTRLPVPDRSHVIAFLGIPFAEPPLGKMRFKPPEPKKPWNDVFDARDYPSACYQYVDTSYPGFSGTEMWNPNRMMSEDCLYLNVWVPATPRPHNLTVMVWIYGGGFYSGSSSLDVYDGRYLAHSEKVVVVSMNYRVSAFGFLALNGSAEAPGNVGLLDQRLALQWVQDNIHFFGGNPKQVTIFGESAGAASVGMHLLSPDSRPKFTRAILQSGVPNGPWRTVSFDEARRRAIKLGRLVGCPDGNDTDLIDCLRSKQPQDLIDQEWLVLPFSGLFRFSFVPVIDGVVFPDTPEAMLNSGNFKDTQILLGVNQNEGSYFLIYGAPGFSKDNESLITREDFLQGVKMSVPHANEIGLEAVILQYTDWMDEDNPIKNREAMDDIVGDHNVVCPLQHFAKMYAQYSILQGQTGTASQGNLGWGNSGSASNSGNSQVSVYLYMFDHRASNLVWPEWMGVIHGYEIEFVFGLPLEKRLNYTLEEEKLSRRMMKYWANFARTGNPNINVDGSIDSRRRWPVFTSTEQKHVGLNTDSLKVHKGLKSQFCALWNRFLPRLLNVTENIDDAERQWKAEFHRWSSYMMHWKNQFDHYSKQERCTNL
Description: The compounds were evaluated as potential inhibitors of proaggregation activity of AChE by measuring the displacement of propidium iodide from the PAS of the enzyme [53] using a fluorescence method [28]. AChE from Electrophorus electricus (EeAChE, type VI-S, lyophilized powder, Sigma-Aldrich, St. Louis, MO, USA) was used for consistency with our previous studies [8, 13, 63, 74]. The fluorescence intensity of propidium iodide bound to AChE increases several-fold. A decrease in the fluorescence intensity in the presence of the test compounds is indicative of their ability to bind to the AChE PAS and, correspondingly, to inhibit β-amyloid aggregation.
EeAChE (7 µM) was incubated with 20 µM of the test compound in 1 mM Tris-HCl buffer, pH 8.0, at 25 °C for 15 min. Then a solution of propidium iodide was added (final concentration 8 µM), the mixture was incubated for 15 min, and the fluorescence spectrum was recorded (excitation at 530 nm and emission at 600 nm). […] The blank contained propidium iodide at the same concentration in 1 mM Tris-HCl buffer, pH 8.0 at 25 °C. The measurements were performed in triplicate on a FLUOstar OPTIMA multifunctional microplate reader.
The degree of displacement of propidium iodide from the PAS of AChE (% displacement) was calculated by the equation:% displacement = 100 − (IFAChE + Propidium + inhibitor/IFAChE + Propidium) × 100, where IFAChE + Propidium is the fluorescence intensity of propidium iodide bound to EeAChE in the absence of the test compound (taken as 100%), and IFAChE + Propidium + inhibitor is the fluorescence intensity of propidium iodide bound to EeAChE in the presence of the test compound.

[3] = target: T3, ifenprodil-binding site of NMDA receptor (NR2B subunit) (Rattus norvegicus, UniProt P35439+Q00960); assay: Radioligand binding assay, [3H]ifenprodil displacement
T3 construct: from tissue; host or cells: rat hippocampus membranes
T3 sequence (Q00960 27-1482, other chains not shown): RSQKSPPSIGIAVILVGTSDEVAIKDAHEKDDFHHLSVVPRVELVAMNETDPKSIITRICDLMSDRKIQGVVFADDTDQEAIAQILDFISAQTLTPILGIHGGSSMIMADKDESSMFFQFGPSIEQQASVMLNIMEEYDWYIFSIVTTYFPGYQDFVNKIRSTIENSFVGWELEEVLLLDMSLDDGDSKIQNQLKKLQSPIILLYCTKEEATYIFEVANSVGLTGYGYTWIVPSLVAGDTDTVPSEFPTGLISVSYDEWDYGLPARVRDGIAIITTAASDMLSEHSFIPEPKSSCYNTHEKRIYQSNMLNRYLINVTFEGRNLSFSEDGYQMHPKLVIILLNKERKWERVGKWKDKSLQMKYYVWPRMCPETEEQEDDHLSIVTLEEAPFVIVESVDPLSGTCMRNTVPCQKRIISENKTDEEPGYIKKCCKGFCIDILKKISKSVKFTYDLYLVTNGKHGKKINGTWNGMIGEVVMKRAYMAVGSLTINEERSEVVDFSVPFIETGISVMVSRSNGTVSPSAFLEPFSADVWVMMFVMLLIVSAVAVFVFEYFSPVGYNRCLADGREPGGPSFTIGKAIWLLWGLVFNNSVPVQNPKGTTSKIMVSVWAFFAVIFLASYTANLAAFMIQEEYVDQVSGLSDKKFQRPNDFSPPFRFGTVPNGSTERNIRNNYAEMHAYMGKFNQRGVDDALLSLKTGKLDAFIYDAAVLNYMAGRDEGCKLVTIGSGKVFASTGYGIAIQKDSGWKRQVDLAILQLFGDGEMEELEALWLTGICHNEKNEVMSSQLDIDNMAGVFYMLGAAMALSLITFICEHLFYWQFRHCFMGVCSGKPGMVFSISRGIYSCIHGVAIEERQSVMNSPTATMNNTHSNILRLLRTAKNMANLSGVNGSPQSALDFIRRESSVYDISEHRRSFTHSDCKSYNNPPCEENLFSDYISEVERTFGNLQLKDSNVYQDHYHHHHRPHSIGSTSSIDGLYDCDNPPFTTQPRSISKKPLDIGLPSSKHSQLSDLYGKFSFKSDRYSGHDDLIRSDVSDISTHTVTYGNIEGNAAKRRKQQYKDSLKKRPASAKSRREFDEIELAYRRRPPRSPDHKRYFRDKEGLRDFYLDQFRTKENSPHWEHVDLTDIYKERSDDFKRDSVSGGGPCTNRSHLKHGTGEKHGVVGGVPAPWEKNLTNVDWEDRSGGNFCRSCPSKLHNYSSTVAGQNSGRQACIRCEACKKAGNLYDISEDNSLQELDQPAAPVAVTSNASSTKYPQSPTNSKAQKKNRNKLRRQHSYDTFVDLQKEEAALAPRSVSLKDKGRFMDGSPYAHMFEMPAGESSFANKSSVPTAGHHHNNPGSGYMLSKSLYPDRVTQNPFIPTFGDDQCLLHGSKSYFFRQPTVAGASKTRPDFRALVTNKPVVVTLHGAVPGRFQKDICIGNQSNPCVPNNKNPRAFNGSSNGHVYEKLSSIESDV
Description: (§2) The effect of the test compounds on radioligand binding to NMDA receptors was evaluated by a modified method, as previously reported [83]. The following two radioligands were used: [^3H] […] A hippocampal membrane preparation for the radioligand binding assay was made as described previously [86, 87]. The obtained membrane pellet was resuspended in a working buffer (5 mM HEPES/4.5 mM Tris, pH 7.6 at 4 °C) in a ratio of 1:5 and stored in liquid nitrogen. The reaction mixture (the final volume was 0.5 mL) contained the working buffer (200 μL), a 50 nM radioligand solution (50 μL) and the membrane suspension (250 μL). The nonspecific binding was evaluated in the presence of 1 mM of the unlabeled ligand (50 μL).
(§3) For the binding assay, the reaction mixture was incubated at room temperature for 2 h. After the incubation, the samples were filtered through GF/B glass fiber filters (Whatman), washed with the working buffer, dried and transferred to scintillation vials. Then the scintillation fluid (5 mL), which is composed of diphenyloxazole (PPO) (4 g) and bis(5-phenyl-2-oxazolyl)benzene (POPOP) (0.2 g) in toluene (1 L) were added to the vials.
(§4) The effect of the test compounds on the binding of [^3H] […] The values of Ki were calculated according to a previously described method [88].

[4] = target: T4, human erythrocyte AChE (Homo sapiens, UniProt P22303); assay: biochemical; settings: mean ± SEM, n = 3; for inhibition at 20 µM: read-out: % of inhibition of AChE with 20 µM concentration of the compound, 20 µM compound; for IC50: 5 min incubation
T4 construct: commercial human erythrocyte AChE; purchased Sigma; host or cells: human erythrocytes
T4 sequence (P22303 32-617 isoform P22303-2 limits assumed): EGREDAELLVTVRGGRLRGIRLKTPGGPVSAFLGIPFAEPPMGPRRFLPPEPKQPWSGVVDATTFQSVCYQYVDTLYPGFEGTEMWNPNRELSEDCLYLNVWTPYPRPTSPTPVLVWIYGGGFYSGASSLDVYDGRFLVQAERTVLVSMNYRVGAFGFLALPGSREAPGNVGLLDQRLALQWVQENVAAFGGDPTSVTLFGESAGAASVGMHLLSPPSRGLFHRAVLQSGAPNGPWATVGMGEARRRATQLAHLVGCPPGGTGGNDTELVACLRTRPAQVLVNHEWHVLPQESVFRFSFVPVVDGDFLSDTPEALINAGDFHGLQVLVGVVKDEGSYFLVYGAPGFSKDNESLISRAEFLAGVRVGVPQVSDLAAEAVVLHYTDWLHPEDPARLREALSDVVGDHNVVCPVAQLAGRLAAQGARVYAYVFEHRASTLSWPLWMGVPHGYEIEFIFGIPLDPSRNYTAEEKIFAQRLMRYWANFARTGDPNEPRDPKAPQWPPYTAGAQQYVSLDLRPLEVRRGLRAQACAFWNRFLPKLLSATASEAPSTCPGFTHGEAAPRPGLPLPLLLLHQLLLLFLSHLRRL

[5] = test system: isolated rat liver mitochondria; assay: Ca2+-induced mitochondrial swelling (MPT pore opening); type: biochemical; settings: 30 µM compound; 12.5 µM Ca2+; 10 mM glutamate, 2 mM malate, 10 mM succinate; percentage relative to the reference compound
Description: Experiments were performed using outbred male rats weighing 200–220 g. The animals were housed under standard vivarium conditions in a normal day/night cycle and had ad libitum access to water and food. The procedure of rat euthanasia using carbon dioxide (CO2) inhalation for mitochondria preparation is in compliance with the Guidelines for Animal Experiments, which were approved by the local bioethics committee of the IPAC RAS.
Rat liver mitochondria were isolated by conventional differential centrifugation. Membrane potential of rat liver mitochondria was measured using the potential-sensitive fluorescent probe Safranine A on a Victor 3 multilabel plate reader (Perkin Elmer, Waltham, MA, USA). The fluorescence was recorded at λex = 485 nm and λem = 590 nm. Mitochondrial swelling was measured by spectrophotometry in 96-well clear bottom plates on a Victor 3 microplate reader (Perkin Elmer, Waltham, MA, USA) at 620 nm; CaCl2 was added to induce mitochondrial swelling (MPT opening).

[6] = test system: tubulin and microtubule-associated proteins (Tb+MAP); assay: GTP-dependent Tb+MAP polymerization; type: biochemical, mouse; settings: 100 µM compound; for Rate of Tb+MAP Polymerization (dA355/dt): 0.1 mM GTP, 37 °C
Description: A crude fraction of tubulin and microtubule-associated proteins (Tb+MAP) was isolated from mouse brain tissue by a polymerization–depolymerization method. The procedure of mouse euthanasia using cervical dislocation for Tb+MAP preparation is in compliance with the Guidelines for Animal Experiments, which were approved by the local bioethics committee of the IPAC RAS. The freshly dissected brain was immediately placed on ice, cleared of meninges and surface blood vessels, and washed with cold buffer A (50 mM Tris-HCl, pH 6.9 at 4 °C, 2 mM EGTA). The extracted brain tissue was homogenized under ice cooling in the same buffer using a Potter S homogenizer (Sartorius). The resulting homogenate was centrifuged at 10,000× g for 30 min on an Avanti 25 centrifuge (Beckman) using a JA-14 rotor for the precipitation of non-ruptured cells. The precipitate was discarded, and the supernatant was again centrifuged at 100,000× g for 60 min at 4 °C on an Optima MAX XP centrifuge (Beckman) using a MLA-50 rotor. The precipitate was again discarded. The protein concentration in the supernatant was determined by the Bradford assay using the Bio-Rad Protein Assay kit (Bio-Rad, Hercules, CA, USA) according to manufacturer’s instructions. The resulting supernatant was a cytosolic fraction enriched in microtubular proteins (Tb and MAP).
The Tb+MAP preparation was centrifuged at 5000× g for 10 min at 4 °C immediately before polymerization in order to remove denatured and aggregated protein molecules by precipitation. The Tb+MAP polymerization was performed at 37 °C in buffer A in the presence of 0.1 mM GTP after addition of 100 µM of test compound or the same volume of vehicle (DMSO). The protein concentration in the sample was 0.2 mg/mL. The polymerization kinetics was monitored on a Victor 3 or EnVision microplate reader (Perkin Elmer, USA) at 355 nm and the stabilized rate of polymerization after the first wave was measured (dA355/dt).

[7] = target: T5, equine serum BChE (Equus caballus, UniProt P81908); assay: biochemical; settings: mean ± SEM, n = 3; for IC50: 5 min incubation
T5 construct: equine serum BChE; purchased Sigma; host or cells: equine serum
T5 sequence (P81908 whole entry): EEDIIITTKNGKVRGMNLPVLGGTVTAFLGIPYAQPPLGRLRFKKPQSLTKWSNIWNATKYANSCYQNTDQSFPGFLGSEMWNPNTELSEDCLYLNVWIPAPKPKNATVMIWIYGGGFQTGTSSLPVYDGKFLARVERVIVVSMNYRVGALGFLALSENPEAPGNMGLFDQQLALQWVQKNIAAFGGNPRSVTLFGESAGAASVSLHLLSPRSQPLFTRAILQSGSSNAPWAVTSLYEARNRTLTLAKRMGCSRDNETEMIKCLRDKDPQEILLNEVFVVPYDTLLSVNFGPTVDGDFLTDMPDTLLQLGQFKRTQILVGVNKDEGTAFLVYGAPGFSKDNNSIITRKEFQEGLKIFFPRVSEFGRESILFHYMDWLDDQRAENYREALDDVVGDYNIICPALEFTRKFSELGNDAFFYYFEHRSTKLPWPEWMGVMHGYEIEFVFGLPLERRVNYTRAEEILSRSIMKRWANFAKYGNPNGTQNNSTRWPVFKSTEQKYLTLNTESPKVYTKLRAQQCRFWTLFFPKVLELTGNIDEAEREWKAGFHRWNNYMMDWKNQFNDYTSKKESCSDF
Description: as §1

[8] = target: T6, MK-801-binding (intrachannel) site of NMDA receptor (Rattus norvegicus, UniProt P35439); assay: Radioligand binding assay, [3H]MK-801 displacement
T6 construct: from tissue; host or cells: rat hippocampus membranes
Description: as §2, §3, §4

SMILES	IC50 ([1]; 5 min incubation, mean ± SEM, n = 3)	% of Displacement of Propidium Iodide from the PAS of EeAChE [2]	Ki [3]	inhibition at 20 µM [4]	Rate of Ca2+-Induced Mitochondrial Swelling (dA620/dt) [5]	Rate of Tb+MAP Polymerization (dA355/dt) [6]	inhibition at 20 µM [1]	IC50 [7]	Ki [8]	IC50 [4]	Increase of the rate of Tb+MAP polymerization, factor [6]	inhibition at 20 µM ([7]; read-out: % of inhibition of BChE with 20 µM concentration of the compound, 20 µM compound)
O=[N+]([O-])c1ccc(OP(=O)(O)Oc2ccc([N+](=O)[O-])cc2)cc1 [BNPP, bis-4-nitrophenyl phosphate, reference compound]	1.8 ± 0.11 µM	–	–	–	–	–	–	–	–	–	–	–
CN1CCc2c(c3ccccc3n2CCNC23CC4CC(C)(CC(C)(C4)C2)C3)C1.Cl.Cl [Compound 4a, 3,5-Dimethyl-N-(2-(2-methyl-3,4-dihydro-1H-pyrido[4,3-b]indol-5(2H)-yl)ethyl)-adamantane-1-amine dihydrochloride]	–	12.5 ± 1.1%	1.7 ± 0.2 µM	19.5 ± 0.3%	33 ± 4%	126 ± 9%	15.6 ± 0.3%	0.666 ± 0.037 µM	1.9 ± 0.2 µM	–	–	–
Cc1ccc2c(c1)c1c(n2CCNC23CC4CC(C)(CC(C)(C4)C2)C3)CCN(C)C1.Cl.Cl [Compound 4b, N-(2-(2,8-Dimethyl-3,4-dihydro-1H-pyrido[4,3-b]indol-5(2H)-yl)ethyl)-3,5-dimethyladamantane-1-amine dihydrochloride]	–	14.7 ± 0.9%	8.8 ± 1 µM	–	39 ± 7%	153 ± 33%	10.4 ± 0.5%	5.07 ± 0.09 µM	7.9 ± 0.8 µM	50.3 ± 3.4 µM	–	–
CN1CCc2c(c3ccccc3n2CCNC23CC4CC(CC(C4)C2)C3)C1.Cl.Cl [Compound 4d, N-(2-(2-Methyl-3,4-dihydro-1H-pyrido[4,3-b]indol-5(2H)-yl)ethyl)adamantane-1-amine dihydrochloride]	–	10.1 ± 0.9%	4.4 ± 0.3 µM	–	35 ± 13%	162 ± 19%	2.9 ± 0.8%	2.48 ± 0.22 µM	3.3 ± 0.3 µM	112 ± 5 µM	–	–
Cc1ccc2c(c1)c1c(n2CCNC23CC4CC(CC(C4)C2)C3)CCN(C)C1.Cl.Cl [Compound 4e, N-(2-(2,8-Dimethyl-3,4-dihydro-1H-pyrido[4,3-b]indol-5(2H)-yl)ethyl)adamantane-1-amine dihydrochloride]	–	15.1 ± 1.2%	8.2 ± 0.9 µM	–	42 ± 9%	239 ± 21%	2.5 ± 0.5%	9.05 ± 0.8 µM	10.3 ± 1.6 µM	63.3 ± 3.3 µM	–	–
CN1CCc2c(c3cc(F)ccc3n2CCNC23CC4CC(CC(C4)C2)C3)C1.Cl.Cl [Compound 4f, N-(2-(8-Fluoro-2-methyl-3,4-dihydro-1H-pyrido[4,3-b]indol-5(2H)-yl)ethyl)adamantane-1-amine dihydrochloride]	–	17.8 ± 1.5%	5.1 ± 0.5 µM	–	42 ± 8%	356 ± 14%	8.6 ± 1.7%	2.53 ± 0.1 µM	5.4 ± 0.6 µM	13.6 ± 1.3 µM	> 3.5	–
CN1CCc2c(c3ccccc3n2CC(=O)NC23CC4CC(C)(CC(C)(C4)C2)C3)C1 [Compound 8a, 3,5-Dimethyladamantan-1-yl)-2-(2-methyl-3,4-dihydro-1H-pyrido[4,3-b]indol-5(2H)-yl)acetamide hydrochloride]	–	–	113 ± 10.4 µM	7.1 ± 0.5%	42 ± 21%	237 ± 55%	5.2 ± 1.2%	9.66 ± 0.52 µM	63.5 ± 5.8 µM	–	–	–
CN1CCc2c(c3cc(F)ccc3n2CC(=O)NC23CC4CC(C)(CC(C)(C4)C2)C3)C1.Cl [Compound 8c, N-(3,5-Dimethyladamantan-1-yl)-2-(8-fluoro-2-methyl-3,4-dihydro-1H-pyrido[4,3-b]indol-5(2H)-yl)acetamide hydrochloride]	–	–	110 ± 10.8 µM	17.3 ± 0.8%	63 ± 25%	359 ± 25%	8.4 ± 0.9%	6 ± 0.06 µM	80.6 ± 8.5 µM	–	> 3.5	–
CN1CCc2c(c3cc(F)ccc3n2CC(=O)NC23CC4CC(CC(C4)C2)C3)C1.Cl [Compound 8f, N-(Adamantan-1-yl)-2-(8-fluoro-2-methyl-3,4-dihydro-1H-pyrido[4,3-b]indol-5(2H)-yl)acetamide hydrochloride]	–	–	73.8 ± 7 µM	22.1 ± 1.8%	61 ± 24%	154 ± 14%	6.2 ± 0.6%	17.1 ± 1.3 µM	47.3 ± 4.7 µM	–	–	–
Cc1ccc2c(c1)c1c(n2CCc2ccc(C)nc2)CCN(C)C1 [dimebon, reference compound]	–	4.1 ± 0.3%	77.2 ± 5.7 µM	–	36 ± 11%	162 ± 23%	–	–	50.4 ± 4.3 µM	–	–	–
CC12CC3CC(C)(C1)CC(N)(C3)C2 [memantine, reference compound]	–	–	–	1.3 ± 0.2%	70 ± 9%	89 ± 7%	3 ± 0.4%	–	–	–	–	13.7 ± 1.5%
